Measured values published in patent US9266892B2, “Fused pyrazoles as FGFR inhibitors” (Incyte Corporation, priority 2012, dated 2016).

Tests used:
Assay type in all cases: biochemical
FGFR1 = biological target: T1, FGFR1 (Homo sapiens, UniProt P11362); assay: FGFR Enzymatic Assay (FRET peptide phosphorylation), FGFR1; settings: FGFR1 0.02 nM, ATP 210 μM
T1 construct: purchased Millipore or Invitrogen
Outline: (§1)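 Human FGFR1 (0.02 nM) and FGFR2 (0.01 nM) were pre-incubated with compound for 5-10 min in HEPES buffer pH 7.5, then reacted at 25 °C for 1 hr with 500 nM biotinylated peptide and ATP (FGFR1 210 μM; FGFR2 100 μM). Phosphopeptide was detected by Eu-PY20/APC-streptavidin TR-FRET after EDTA quench. IC50 came from variable-slope sigmoidal fits.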

FGFR2 = biological target: T2, FGFR2 (Homo sapiens, UniProt P21802); assay: FGFR Enzymatic Assay (FRET peptide phosphorylation), FGFR2; settings: FGFR2 0.01 nM, ATP 100 μM
T2 construct: purchased Millipore or Invitrogen
T2 sequence (P21802 22-821): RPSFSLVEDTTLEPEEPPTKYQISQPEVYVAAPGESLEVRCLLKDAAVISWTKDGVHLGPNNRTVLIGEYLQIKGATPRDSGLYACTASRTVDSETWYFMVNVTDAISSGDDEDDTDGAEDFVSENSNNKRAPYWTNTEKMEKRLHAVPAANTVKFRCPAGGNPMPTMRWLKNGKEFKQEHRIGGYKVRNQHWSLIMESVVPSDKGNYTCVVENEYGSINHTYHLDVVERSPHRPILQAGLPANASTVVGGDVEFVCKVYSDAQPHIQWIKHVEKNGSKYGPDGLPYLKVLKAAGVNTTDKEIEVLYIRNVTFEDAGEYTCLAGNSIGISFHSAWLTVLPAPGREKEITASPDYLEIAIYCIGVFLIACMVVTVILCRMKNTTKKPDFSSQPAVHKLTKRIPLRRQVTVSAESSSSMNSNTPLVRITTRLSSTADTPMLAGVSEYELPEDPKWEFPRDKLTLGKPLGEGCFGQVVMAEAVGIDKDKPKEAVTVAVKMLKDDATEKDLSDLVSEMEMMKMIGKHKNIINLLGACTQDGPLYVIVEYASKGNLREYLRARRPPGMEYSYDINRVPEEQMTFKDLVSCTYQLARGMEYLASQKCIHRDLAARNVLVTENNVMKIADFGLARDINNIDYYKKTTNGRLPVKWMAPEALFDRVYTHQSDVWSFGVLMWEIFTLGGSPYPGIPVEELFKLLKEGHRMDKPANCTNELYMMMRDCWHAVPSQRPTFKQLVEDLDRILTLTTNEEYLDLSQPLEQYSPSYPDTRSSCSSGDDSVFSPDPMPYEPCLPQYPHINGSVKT
Outline: as §1

FGFR3 = biological target: T3, FGFR3 (Homo sapiens, UniProt P22607); assay: FGFR Enzymatic Assay (FRET peptide phosphorylation), FGFR3; settings: ATP 140 μM, 25° C. for 1 hr
T3 construct: purchased Millipore
T3 sequence (P22607 23-806): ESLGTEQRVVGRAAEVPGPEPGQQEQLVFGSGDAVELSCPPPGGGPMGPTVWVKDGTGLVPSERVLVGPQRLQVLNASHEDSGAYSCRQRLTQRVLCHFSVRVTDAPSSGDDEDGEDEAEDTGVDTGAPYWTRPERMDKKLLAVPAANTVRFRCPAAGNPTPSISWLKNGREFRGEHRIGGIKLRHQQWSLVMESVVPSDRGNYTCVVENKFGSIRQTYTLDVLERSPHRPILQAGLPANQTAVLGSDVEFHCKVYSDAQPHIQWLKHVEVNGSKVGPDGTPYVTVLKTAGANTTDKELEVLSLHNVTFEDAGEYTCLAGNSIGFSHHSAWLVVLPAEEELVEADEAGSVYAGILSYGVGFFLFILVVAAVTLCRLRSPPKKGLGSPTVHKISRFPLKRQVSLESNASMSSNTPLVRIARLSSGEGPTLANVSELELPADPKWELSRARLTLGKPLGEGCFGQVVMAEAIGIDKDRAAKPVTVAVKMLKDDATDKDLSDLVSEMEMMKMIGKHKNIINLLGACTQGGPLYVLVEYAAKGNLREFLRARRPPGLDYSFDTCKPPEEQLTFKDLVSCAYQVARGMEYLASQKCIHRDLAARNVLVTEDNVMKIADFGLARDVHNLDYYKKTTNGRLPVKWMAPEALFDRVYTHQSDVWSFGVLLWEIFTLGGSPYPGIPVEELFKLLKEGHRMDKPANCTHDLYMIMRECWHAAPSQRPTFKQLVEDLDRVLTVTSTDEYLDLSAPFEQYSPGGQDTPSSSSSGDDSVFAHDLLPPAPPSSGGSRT
Outline: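 FGFR3 in 50 mM HEPES pH 7.5, 10 mM […]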

T1 sequence (P11362 22-822): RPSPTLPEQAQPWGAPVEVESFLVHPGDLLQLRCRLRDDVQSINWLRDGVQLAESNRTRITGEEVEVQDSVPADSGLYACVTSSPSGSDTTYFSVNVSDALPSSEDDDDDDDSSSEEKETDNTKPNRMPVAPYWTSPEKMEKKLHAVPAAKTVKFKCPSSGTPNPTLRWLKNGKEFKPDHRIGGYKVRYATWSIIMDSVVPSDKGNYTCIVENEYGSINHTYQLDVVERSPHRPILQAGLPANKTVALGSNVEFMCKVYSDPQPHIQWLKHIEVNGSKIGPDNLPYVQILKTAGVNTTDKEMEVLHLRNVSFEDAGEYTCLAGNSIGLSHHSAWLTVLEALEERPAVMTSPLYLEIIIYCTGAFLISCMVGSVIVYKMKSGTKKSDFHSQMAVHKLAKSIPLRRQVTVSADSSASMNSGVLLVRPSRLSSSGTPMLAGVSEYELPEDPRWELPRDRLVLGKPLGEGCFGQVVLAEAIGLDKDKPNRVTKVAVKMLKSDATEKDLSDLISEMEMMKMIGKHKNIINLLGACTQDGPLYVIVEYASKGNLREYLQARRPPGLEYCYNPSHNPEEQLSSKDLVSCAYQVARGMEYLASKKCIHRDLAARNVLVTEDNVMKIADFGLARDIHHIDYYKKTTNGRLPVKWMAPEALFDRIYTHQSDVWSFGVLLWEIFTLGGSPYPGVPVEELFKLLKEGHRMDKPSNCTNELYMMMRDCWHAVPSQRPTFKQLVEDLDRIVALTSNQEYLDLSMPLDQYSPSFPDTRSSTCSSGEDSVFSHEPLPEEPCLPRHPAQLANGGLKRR

Row | SMILES | IC50 (FGFR1) [nM] | IC50 (FGFR2) [nM] | IC50 (FGFR3) [nM]
1 | COc1cc(OC)c(F)c(-c2cc3[nH]nc(-c4cc5c(cc4F)C(=O)N(C(C)C)C5)c3cn2)c1F [Example 65, 5-[6-(2,6-Difluoro-3,5-dimethoxyphenyl)-1H-pyrazolo[4,3-c]pyridin-3-yl]-6-fluoro-2-isopropylisoindolin-1-one] | < 100 | < 100 | < 100
2 | COc1cc(OC)c(F)c(-c2cc3[nH]nc(-c4ccc5c(c4)CN(C4CCN(C)CC4)C5=O)c3cn2)c1F [Example 66, 5-[6-(2,6-Difluoro-3,5-dimethoxyphenyl)-1H-pyrazolo[4,3-c]pyridin-3-yl]-2-(1-methylpiperidin-4-yl)isoindolin-1-one] | < 100 | < 100 | < 100
3 | COc1cc(OC)c(F)c(-c2cc3[nH]nc(-c4ccc5c(c4)CN(CCC4CCCN4C)C5=O)c3cn2)c1F (stereo not drawn) [Example 68, 5-[6-(2,6-Difluoro-3,5-dimethoxyphenyl)-1H-pyrazolo[4,3-c]pyridin-3-yl]-2-[2-(1-methylpyrrolidin-2-yl)ethyl]isoindolin-1-one] | < 100 | < 100 | < 100
4 | CCN1Cc2cc(-c3n[nH]c4cc(-c5c(F)c(OC)cc(OC)c5Cl)ncc34)ccc2C1=O [Example 69, 5-[6-(2-chloro-6-fluoro-3,5-dimethoxyphenyl)-1H-pyrazolo[4,3-c]pyridin-3-yl]-2-ethylisoindolin-1-one] | < 100 | < 100 | < 100
5 | COc1cc(OC)c(Cl)c(-c2cnc3c(-c4cnn(CCCO)c4)n[nH]c3c2)c1Cl [Example 71, 3-{4-[6-(2,6-Dichloro-3,5-dimethoxyphenyl)-1H-pyrazolo[4,3-b]pyridin-3-yl]-1H-pyrazol-1-yl}propan-1-ol] | < 100 | < 100 | < 100
6 | COc1cc(OC)c(Cl)c(-c2ncc3c(-c4cnn(C(C)C#N)c4)n[nH]c3n2)c1Cl (stereo not drawn) [Example 73, 2-{4-[6-(2,6-Dichloro-3,5-dimethoxyphenyl)-1H-pyrazolo[3,4-d]pyrimidin-3-yl]-1H-pyrazol-1-yl}propanenitrile] | < 100 | < 100 | < 100
7 | COc1cc(OC)c(Cl)c(-c2ncc3c(-c4ccc5c(c4)CN(C4CC4)C5=O)n[nH]c3n2)c1Cl [Example 74, 2-Cyclopropyl-5-[6-(2,6-dichloro-3,5-dimethoxyphenyl)-1H-pyrazolo[3,4-d]pyrimidin-3-yl]isoindolin-1-one] | < 100 | < 100 | < 100
8 | COc1cc(OC)c(Cl)c(-c2ncc3c(-c4ccc(N5CCN(C)CC5)cc4)n[nH]c3n2)c1Cl [Example 75, 6-(2,6-Dichloro-3,5-dimethoxyphenyl)-3-[4-(4-methylpiperazin-1-yl)phenyl]-1H-pyrazolo[3,4-d]pyrimidine] | < 100 | < 100 | < 100
9 | CCN1Cc2cc(-c3n[nH]c4nc(-c5c(Cl)c(OC)cc(OC)c5Cl)ncc34)cnc2C1=O [Example 77, 3-[6-(2,6-Dichloro-3,5-dimethoxyphenyl)-1H-pyrazolo[3,4-d]pyrimidin-3-yl]-6-ethyl-5,6-dihydro-7H-pyrrolo[3,4-b]pyridin-7-one] | < 100 | < 100 | < 100
10 | COc1cc(OC)c(F)c(-c2ncc3c(-c4ccc5c(c4)CN(C4CCN(C)CC4)C5=O)n[nH]c3n2)c1F [Example 79, 5-[6-(2,6-Difluoro-3,5-dimethoxyphenyl)-1H-pyrazolo[3,4-d]pyrimidin-3-yl]-2-(1-methylpiperidin-4-yl)isoindolin-1-one] | < 100 | < 100 | < 100
11 | COc1cc(OC)c(Cl)c(-c2ncc3c(-c4ccc5c(c4)CCO5)n[nH]c3n2)c1Cl [Example 86, 6-(2,6-Dichloro-3,5-dimethoxyphenyl)-3-(2,3-dihydro-1-benzofuran-5-yl)-1H-pyrazolo[3,4-d]pyrimidine] | < 100 | < 100 | < 100

Continued, values first:

Row | IC50 (FGFR1) [nM] | IC50 (FGFR2) [nM] | IC50 (FGFR3) [nM] | SMILES
12 | < 100 | < 100 | < 100 | COc1cc(OC)c(F)c(-c2cc3[nH]nc(-c4ccc5c(c4)CN(CCN(C)C)C5=O)c3cn2)c1F [Example 67, 5-[6-(2,6-Difluoro-3,5-dimethoxyphenyl)-1H-pyrazolo[4,3-c]pyridin-3-yl]-2-[2-(dimethylamino)ethyl]isoindolin-1-one]
13 | < 100 | < 100 | < 100 | COc1cc(OC)c(Cl)c(-c2cnc3c(-c4cnn(C)c4)n[nH]c3c2)c1Cl [Example 70, 6-(2,6-dichloro-3,5-dimethoxyphenyl)-3-(1-methyl-1H-pyrazol-4-yl)-1H-pyrazolo[4,3-b]pyridine]
14 | < 100 | < 100 | < 100 | COc1cc(OC)c(F)c(-c2ccc3c(-c4cnn(C)c4)n[nH]c3n2)c1F [Example 72, 6-(2,6-Difluoro-3,5-dimethoxyphenyl)-3-(1-methyl-1H-pyrazol-4-yl)-1H-pyrazolo[3,4-b]pyridine]
15 | < 100 | < 100 | < 100 | COc1cc(OC)c(F)c(-c2ncc3c(-c4cnn(C(C)C#N)c4)n[nH]c3n2)c1F (stereo not drawn) [Example 76, 2-{4-[6-(2,6-Difluoro-3,5-dimethoxyphenyl)-1H-pyrazolo[3,4-d]pyrimidin-3-yl]-1H-pyrazol-1-yl}propanenitrile]
16 | < 100 | < 100 | < 100 | COc1cc(OC)c(F)c(-c2ncc3c(-c4ccc5c(c4)CN(C(C)C)C5=O)n[nH]c3n2)c1F [Example 78, 5-[6-(2,6-Difluoro-3,5-dimethoxyphenyl)-1H-pyrazolo[3,4-d]pyrimidin-3-yl]-2-isopropylisoindolin-1-one]
17 | < 100 | < 100 | < 100 | COc1cc(OC)c(F)c(-c2ncc3c(-c4ccc5c(c4)CN(CCN(C)C)C5=O)n[nH]c3n2)c1F [Example 80, 5-[6-(2,6-Difluoro-3,5-dimethoxyphenyl)-1H-pyrazolo[3,4-d]pyrimidin-3-yl]-2-[2-(dimethylamino)ethyl]isoindolin-1-one]
18 | < 100 | < 100 | < 100 | COc1cc(OC)c(F)c(-c2ncc3c(-c4ccc5c(c4)CN(C(C)CO)C5=O)n[nH]c3n2)c1F (stereo not drawn) [Example 81, 5-[6-(2,6-Difluoro-3,5-dimethoxyphenyl)-1H-pyrazolo[3,4-d]pyrimidin-3-yl]-2-(2-hydroxy-1-methylethyl)isoindolin-1-one]
19 | < 100 | < 100 | < 100 | COc1cc(OC)c(F)c(-c2ncc3c(-c4ccc5c(c4)CN(CC(C)O)C5=O)n[nH]c3n2)c1F (stereo not drawn) [Example 82, 5-[6-(2,6-Difluoro-3,5-dimethoxyphenyl)-1H-pyrazolo[3,4-d]pyrimidin-3-yl]-2-(2-hydroxypropyl)isoindolin-1-one]
20 | < 100 | < 100 | < 100 | COc1cc(OC)c(F)c(-c2ncc3c(-c4ccc5c(c4)CN(S(C)(=O)=O)CC5)n[nH]c3n2)c1F [Example 85, 7-[6-(2,6-Difluoro-3,5-dimethoxyphenyl)-1H-pyrazolo[3,4-d]pyrimidin-3-yl]-2-(methylsulfonyl)-1,2,3,4-tetrahydroisoquinoline]
21 | < 100 | < 100 | < 100 | COc1cc(OC)c(F)c(-c2ncc3c(-c4cnn(C)c4)n[nH]c3n2)c1F [Example 87, 6-(2,6-Difluoro-3,5-dimethoxyphenyl)-3-(1-methyl-1H-pyrazol-4-yl)-1H-pyrazolo[3,4-d]pyrimidine]
22 | < 100 | < 100 | < 100 | COc1cc(OC)c(F)c(-c2cc3[nH]nc(-c4cnn(CCO)c4)c3cn2)c1F [Example 88, 2-{4-[6-(2,6-Difluoro-3,5-dimethoxyphenyl)-1H-pyrazolo[4,3-c]pyridin-3-yl]-1H-pyrazol-1-yl}ethanol]
23 | < 100 | < 100 | < 100 | COc1cc(OC)c(Cl)c(-c2ccc3c(-c4ccc5c(c4)CN(C4CC4)C5=O)n[nH]c3n2)c1F [Example 89, 5-[6-(2-Chloro-6-fluoro-3,5-dimethoxyphenyl)-1H-pyrazolo[3,4-b]pyridin-3-yl]-2-cyclopropylisoindolin-1-one]
24 | < 100 | < 100 | < 100 | COc1cc(OC)c(Cl)c(-c2cc3[nH]nc(-c4cnn(C)c4)c3cn2)c1Cl [Example 90, 6-(2,6-Dichloro-3,5-dimethoxyphenyl)-3-(1-methyl-1H-pyrazol-4-yl)-1H-pyrazolo[4,3-c]pyridine]
25 | < 100 | < 100 | < 100 | COc1cc(OC)c(F)c(-c2cc3[nH]nc(-c4cnn(C)c4)c3cn2)c1F [Example 91, 6-(2,6-Difluoro-3,5-dimethoxyphenyl)-3-(1-methyl-1H-pyrazol-4-yl)-1H-pyrazolo[4,3-c]pyridine]
26 | < 100 | < 100 | < 100 | COC(=O)c1cc2cc(-c3n[nH]c4cc(-c5c(F)c(OC)cc(OC)c5F)ncc34)ccc2o1 [Example 92, Methyl 5-[6-(2,6-difluoro-3,5-dimethoxyphenyl)-1H-pyrazolo[4,3-c]pyridin-3-yl]-1-benzofuran-2-carboxylate]
27 | < 100 | < 100 | < 100 | COc1cc(OC)c(F)c(-c2ncc3c(-c4ccc5nccn5c4)n[nH]c3n2)c1F [Example 93, 6-(2,6-Difluoro-3,5-dimethoxyphenyl)-3-imidazo[1,2-a]pyridin-6-yl-1H-pyrazolo[3,4-d]pyrimidine]
28 | < 100 | < 100 | < 100 | COc1cc(OC)c(F)c(-c2ncc3c(-c4ccc5ncccc5c4)n[nH]c3n2)c1F [Example 94, 6-[6-(2,6-Difluoro-3,5-dimethoxyphenyl)-1H-pyrazolo[3,4-d]pyrimidin-3-yl]quinoline]
